Assay results as given in US20240398784A1, “C-LINKED ISOQUINOLINE AMIDES AS LRRK2 INHIBITORS, PHARMACEUTICAL COMPOSITIONS, AND USES THEREOF” (Merck Sharp & Dohme LLC, priority 2021, published 2024).

Biological target: LRRK2 G2019S (Homo sapiens, UniProt Q5S007, G2019S)
Assay: LRRK2 G2019S Km ATP LanthaScreen assay
Type: biochemical
Settings: not given
Experimental: Unless otherwise noted, all reactions are magnetically stirred. Unless otherwise noted, when diethyl ether is used in the experiments described below, it is Fisher ACS certified material and is stabilized with BHT. Unless otherwise noted, “concentrated” and/or “solvent removed under reduced pressure” means evaporating the solvent from a solution or mixture using a rotary evaporator or vacuum pump. Unless otherwise noted, flash chromatography is carried out on a Teledyne Isco (Lincoln, NE), Analogix (Burlington, WI), or Biotage (Stockholm, SWE) automated chromatography system using a commercially available cartridge as the column. Columns may be purchased from Teledyne Isco, Analogix, Biotage, Varian (Palo Alto, CA), or Supelco (Bellefonte, PA) and are usually filled with silica gel as the stationary phase. Reverse phase prep-HPLC conditions, where used, can be found at the end of each experimental section. Aqueous solutions were concentrated on a Genevac (Ipswich, ENG) or by freeze-drying/lyophilization.

LRRK2 G2019S, sequence (Q5S007 whole entry G2019S): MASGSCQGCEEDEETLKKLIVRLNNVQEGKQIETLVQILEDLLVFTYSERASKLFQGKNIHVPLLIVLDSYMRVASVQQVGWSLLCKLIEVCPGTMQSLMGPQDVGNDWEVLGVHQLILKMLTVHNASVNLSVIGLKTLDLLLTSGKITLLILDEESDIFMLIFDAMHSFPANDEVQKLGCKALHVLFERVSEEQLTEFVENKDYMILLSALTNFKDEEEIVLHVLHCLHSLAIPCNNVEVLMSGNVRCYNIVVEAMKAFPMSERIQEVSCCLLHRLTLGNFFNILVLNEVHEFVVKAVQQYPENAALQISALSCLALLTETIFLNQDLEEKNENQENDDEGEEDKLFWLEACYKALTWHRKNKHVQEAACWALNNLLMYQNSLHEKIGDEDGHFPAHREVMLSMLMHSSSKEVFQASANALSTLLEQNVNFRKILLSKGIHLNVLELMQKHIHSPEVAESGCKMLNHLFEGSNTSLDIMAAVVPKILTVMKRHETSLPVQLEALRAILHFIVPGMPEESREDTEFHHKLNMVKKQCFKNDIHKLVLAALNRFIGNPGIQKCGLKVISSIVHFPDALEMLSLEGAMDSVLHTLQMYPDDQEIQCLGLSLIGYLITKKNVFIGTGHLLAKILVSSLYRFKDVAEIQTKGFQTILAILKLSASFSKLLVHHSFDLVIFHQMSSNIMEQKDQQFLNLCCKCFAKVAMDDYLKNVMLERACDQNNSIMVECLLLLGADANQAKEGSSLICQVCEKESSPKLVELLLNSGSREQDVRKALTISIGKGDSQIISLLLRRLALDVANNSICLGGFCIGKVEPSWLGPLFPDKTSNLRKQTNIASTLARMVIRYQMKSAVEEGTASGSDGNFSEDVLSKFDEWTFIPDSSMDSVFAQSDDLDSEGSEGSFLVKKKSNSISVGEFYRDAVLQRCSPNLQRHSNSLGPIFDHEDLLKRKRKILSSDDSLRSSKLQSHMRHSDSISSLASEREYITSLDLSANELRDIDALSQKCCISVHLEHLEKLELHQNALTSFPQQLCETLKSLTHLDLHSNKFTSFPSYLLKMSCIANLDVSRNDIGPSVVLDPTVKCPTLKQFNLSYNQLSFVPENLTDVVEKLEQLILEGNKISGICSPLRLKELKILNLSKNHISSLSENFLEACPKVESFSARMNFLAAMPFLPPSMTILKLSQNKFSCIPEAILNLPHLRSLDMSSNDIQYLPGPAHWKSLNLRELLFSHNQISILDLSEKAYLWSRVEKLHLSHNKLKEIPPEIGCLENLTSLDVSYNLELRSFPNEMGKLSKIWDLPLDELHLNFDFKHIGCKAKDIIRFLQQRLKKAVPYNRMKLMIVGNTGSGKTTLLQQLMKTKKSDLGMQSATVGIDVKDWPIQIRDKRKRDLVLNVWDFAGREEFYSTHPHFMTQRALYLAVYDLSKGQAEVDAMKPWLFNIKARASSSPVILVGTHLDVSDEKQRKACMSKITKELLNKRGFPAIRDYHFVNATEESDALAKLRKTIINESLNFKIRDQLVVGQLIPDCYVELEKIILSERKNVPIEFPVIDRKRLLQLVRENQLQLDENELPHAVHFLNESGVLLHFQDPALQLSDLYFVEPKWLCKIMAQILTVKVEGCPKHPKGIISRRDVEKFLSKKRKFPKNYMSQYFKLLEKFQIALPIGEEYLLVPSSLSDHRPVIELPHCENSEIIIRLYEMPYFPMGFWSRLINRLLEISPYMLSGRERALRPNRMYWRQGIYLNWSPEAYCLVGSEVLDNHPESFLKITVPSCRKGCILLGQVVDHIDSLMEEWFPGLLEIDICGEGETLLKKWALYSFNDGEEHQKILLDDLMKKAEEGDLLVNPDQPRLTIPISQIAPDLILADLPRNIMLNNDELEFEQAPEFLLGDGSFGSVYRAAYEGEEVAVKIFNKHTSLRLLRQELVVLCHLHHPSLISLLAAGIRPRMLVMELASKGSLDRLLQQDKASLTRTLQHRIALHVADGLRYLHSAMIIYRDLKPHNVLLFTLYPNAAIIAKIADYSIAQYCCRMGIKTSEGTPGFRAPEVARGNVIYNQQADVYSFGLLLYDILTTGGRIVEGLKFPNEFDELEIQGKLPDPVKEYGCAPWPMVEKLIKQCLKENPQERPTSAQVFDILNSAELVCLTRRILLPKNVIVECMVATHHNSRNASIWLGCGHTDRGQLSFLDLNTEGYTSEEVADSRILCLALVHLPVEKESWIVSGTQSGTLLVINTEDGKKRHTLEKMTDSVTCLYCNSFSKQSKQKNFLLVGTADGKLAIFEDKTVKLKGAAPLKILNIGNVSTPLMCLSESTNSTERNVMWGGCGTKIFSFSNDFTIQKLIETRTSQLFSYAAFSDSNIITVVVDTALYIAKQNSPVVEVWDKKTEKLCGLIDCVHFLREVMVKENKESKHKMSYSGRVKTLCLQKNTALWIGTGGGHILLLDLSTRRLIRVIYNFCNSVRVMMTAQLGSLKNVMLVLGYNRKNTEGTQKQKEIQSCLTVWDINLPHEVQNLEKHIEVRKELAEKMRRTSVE

Row | LRRK2 pIC50 | Compound
1 | 10.09 | CC1(N2CCC(c3cc4cc(NC(=O)Cc5ccncc5)ncc4cc3Cl)CC2)COCC1O (stereo not shown) [Ex-3.8]

Same assay, conditions: read-out: LRRK2 pIC50 (converted)

Row | IC50 | Compound
2 | 0.0813 nM | CC(C)(O)C1CC1C(=O)Nc1cc2cc(C3CCN(C4(C)COCC4O)CC3)c(Cl)cc2cn1 (single isomer, unassigned) [Ex-4.10, Trans-N-(7-chloro-6-(1-(4-hydroxy-3-methyltetrahydrofuran-3-yl)piperidin-4-yl)isoquinolin-3-yl)-2-(2-hydroxypropan-2-yl)cyclopropane-1-carboxamide]
3 | 3.63 nM | N#CC1(c2ccc3cnc(NC(=O)C4CC4)cc3c2)CC12CC2 (single isomer, unassigned) [Ex-18.2, N-(6-(1-cyanospiro[2.2]pentan-1-yl)isoquinolin-3-yl)cyclopropanecarboxamide]
4 | 186 nM | O=C(Nc1cc2cc(C3CCC(N4CC(F)C4)CC3)c(Cl)cc2cn1)C1CC12CCOCC2 (single isomer, unassigned) [Ex-11.5, N-(7-chloro-6-(4-(3-fluoroazetidin-1-yl)cyclohexyl)isoquinolin-3-yl)-6-oxaspiro[2.5]octane-1-carboxamide]
5 | 0.0813 nM | Cc1cc2cnc(NC(=O)C3CC3c3ccccn3)cc2cc1C1CCN(C2(C)COCC2O)CC1 (single isomer, unassigned) [Ex-4.78, N-(6-(1-(4-hydroxy-3-methyltetrahydrofuran-3-yl)piperidin-4-yl)-7-methylisoquinolin-3-yl)-2-(pyridin-2-yl)cyclopropane-1-carboxamide]
6 | 2.57 nM | CCOC1CC2(C1)CC2C(=O)Nc1cc2cc(C3CCN(C4(C)COCC4O)CC3)c(Cl)cc2cn1 (single isomer, unassigned) [Ex-4.32, N-(7-chloro-6-(1-(4-hydroxy-3-methyltetrahydrofuran-3-yl)piperidin-4-yl)isoquinolin-3-yl)-5-ethoxyspiro[2.3]hexane-1-carboxamide]
7 | 8.32 nM | CC1(N2CCC(c3cc4cc(NC(=O)C5CC5C#N)ncc4cc3Cl)CC2)COC1 (stereo not shown) [Ex-2.8]
8 | 4.47 nM | CC(C)(O)C1CC1C(=O)Nc1cc2cc(C3CCN(C4(C)COC4)CC3)c(Cl)cc2cn1 (single isomer, unassigned) [Ex-22.1, (1R,2R or 1S,2S)-N-(7-chloro-6-(1-(3-methyloxetan-3-yl)piperidin-4-yl)isoquinolin-3-yl)-2-(2-hydroxypropan-2-yl)cyclopropanecarboxamide]
9 | 1.58 nM | CC1(N2CCC(c3cc4cc(NC(=O)C5CC56CCOCC6)ncc4cc3Cl)C(F)C2)COCC1O (single isomer, unassigned) [Ex-14.5, N-(7-chloro-6-(3-fluoro-1-(4-hydroxy-3-methyltetrahydrofuran-3-yl)piperidin-4-yl)isoquinolin-3-yl)-6-oxaspiro[2.5]octane-1-carboxamide]
10 | 1.38 nM | CC1(N2CCC(c3cc4cc(NC(=O)C5C6CCOCC65)ncc4cc3Cl)CC2)COCC1O (single isomer, unassigned) [Ex-4.34, N-(7-chloro-6-(1-(4-hydroxy-3-methyltetrahydrofuran-3-yl)piperidin-4-yl)isoquinolin-3-yl)-3-oxabicyclo[4.1.0]heptane-7-carboxamide]
11 | 3.24 nM | Cc1cc2cnc(NC(=O)C3CC3)cc2cc1C1CCN(C2(C)COC2)CC1 [Ex-15.1]
12 | 10.5 nM | COC1CCC(C(=O)Nc2cc3cc(C4CCN(C5(C)COCC5O)CC4)c(Cl)cc3cn2)CC1 (single isomer, unassigned) [Ex-10.1, 1,4-trans, (3R,4R)- or 1,4-trans, (3S,4S)- or 1,4-cis, (3R,4R)- or 1,4-cis, (3S,4S)-N-(7-chloro-6-(1-(4-hydroxy-3-methyltetrahydrofuran-3-yl)piperidin-4-yl)isoquinolin-3-yl)-4-methoxycyclohexane-1-carboxamide]
13 | 2.51 nM | Cc1cc2cnc(NC(=O)C3CC3c3ccccn3)cc2cc1C1CCN(C2(C)COCC2F)CC1 (single isomer, unassigned) [Ex-13.1, (1R,2R or 1S,2S)-N-(6-(1-((3R,4R or 3S,4S)-4-fluoro-3-methyltetrahydrofuran-3-yl)piperidin-4-yl)-7-methylisoquinolin-3-yl)-2-(pyridin-2-yl)cyclopropane-1-carboxamide]
14 | 0.126 nM | CC1(C)CC(C(=O)Nc2cc3cc(C4CCN(C5(C)COCC5O)CC4)c(Cl)cc3cn2)CO1 (stereo not shown) [Ex-2.30]
15 | 1.82 nM | COC1COCC1(C)N1CCC(c2cc3cc(NC(=O)C4CC45CCOCC5)ncc3cc2Cl)CC1 (single isomer, unassigned) [Ex-6.23, N-(7-chloro-6-(1-(4-methoxy-3-methyltetrahydrofuran-3-yl)piperidin-4-yl)isoquinolin-3-yl)-6-oxaspiro[2.5]octane-1-carboxamide]
16 | 0.0813 nM | Cc1cc2cnc(NC(=O)C3CC34CCOCC4)cc2cc1C1CCN(C2(C)COCC2C)CC1 (single isomer, unassigned) [Ex-15.4, N-(6-(1-(3,4-dimethyltetrahydrofuran-3-yl)piperidin-4-yl)-7-methylisoquinolin-3-yl)-6-oxaspiro[2.5]octane-1-carboxamide]
17 | 0.631 nM | Cn1cc(C(=O)Nc2cc3cc(C4(C#N)CC45CC5)ccc3cn2)cn1 (single isomer, unassigned) [Ex-18.15, (R or S)-N-(6-(1-cyanospiro[2.2]pentan-1-yl)isoquinolin-3-yl)-1-methyl-1H-pyrazole-4-carboxamide]
18 | 0.631 nM | Cn1cc(C(=O)Nc2cc3cc(C4CCN(C5COCC5O)CC4)c(Cl)cc3cn2)cn1 (stereo not shown) [Ex-3.5]
19 | 0.214 nM | CC1(N2CCC(c3cc4cc(NC(=O)C5C6COCC65)ncc4cc3Cl)CC2)COCC1O (stereo not shown) [Ex-2.15]
20 | 112 nM | CC(C)(O)C1CC1C(=O)Nc1cc2cc(C3CCN(C4(C)COCC4F)CC3)c(Cl)cc2cn1 (single isomer, unassigned) [Ex-6.27, N-(7-chloro-6-(1-(4-fluoro-3-methyltetrahydrofuran-3-yl)piperidin-4-yl)isoquinolin-3-yl)-2-(2-hydroxypropan-2-yl)cyclopropane-1-carboxamide]
21 | 11.7 nM | CN1CCO[C@@H](C(=O)Nc2cc3cc(C4(C#N)CC45CC5)ccc3cn2)C1 (single isomer, unassigned) [Ex-1.31, (2R)-N-(6-((R or S)-1-cyanospiro[2.2]pentan-1-yl)isoquinolin-3-yl)-4-methylmorpholine-2-carboxamide]
22 | 1.17 nM | CC1(N2CCC(c3cc4cc(NC(=O)C5CC56CCOC6)ncc4cc3Cl)CC2)COCC1F (single isomer, unassigned) [Ex-6.6, (R or S)-N-(7-chloro-6-(1-((3R,4R or 3S,4S)-4-fluoro-3-methyltetrahydrofuran-3-yl)piperidin-4-yl)isoquinolin-3-yl)-5-oxaspiro [2.4] heptane-1-carboxamide]
23 | 0.195 nM | CC1(N2CCC(c3cc4cc(NC(=O)C5CC56CCOCC6)ncc4cc3F)CC2)COCC1O (single isomer, unassigned) [Ex-8.3, N-(7-fluoro-6-(1-(4-hydroxy-3-methyltetrahydrofuran-3-yl)piperidin-4-yl)isoquinolin-3-yl)-6-oxaspiro[2.5]octane-1-carboxamide]
24 | 5.75 nM | CC1CC1(C#N)c1ccc2cnc(NC(=O)C3CC3)cc2c1 (single isomer, unassigned) [Ex-18.5, (R or S)-N-(6-(1-cyano-2-methylcyclopropyl)isoquinolin-3-yl)cyclopropanecarboxamide]
25 | 70.8 nM | Cc1cc2cnc(NC(=O)C3CC34CCOC4)cc2cc1C1CCN(C2(C)COCC2F)CC1 (single isomer, unassigned) [Ex-15.11, N-(6-(1-(4-fluoro-3-methyltetrahydrofuran-3-yl)piperidin-4-yl)-7-methylisoquinolin-3-yl)-5-oxaspiro[2.4]heptane-1-carboxamide]
26 | 47.9 nM | O=C(Nc1cc2cc(C3CCC(N4CC(F)(F)C4)CC3)c(Cl)cc2cn1)C1CC1c1ccccn1 (single isomer, unassigned) [Ex-5.4, N-(7-chloro-6-(4-(3,3-difluoroazetidin-1-yl)cyclohexyl)isoquinolin-3-yl)-2-(pyridin-2-yl)cyclopropane-1-carboxamide]
27 | 2 nM | CC(C)(F)C1CC1C(=O)Nc1cc2cc(C3CCN(C4(C)COCC4O)CC3)c(Cl)cc2cn1 (single isomer, unassigned) [Ex-4.47, N-(7-chloro-6-(1-(4-hydroxy-3-methyltetrahydrofuran-3-yl)piperidin-4-yl)isoquinolin-3-yl)-2-(2-fluoropropan-2-yl)cyclopropane-1-carboxamide]
28 | 3.55 nM | CC1(N2CCC(c3cc4cc(NC(=O)C5CC56CCOCC6)ncc4cc3Cl)CC2)COC(C2CC2)C1 (single isomer, unassigned) [Ex-6.17, N-(7-chloro-6-(1-(5-cyclopropyl-3-methyltetrahydrofuran-3-yl)piperidin-4-yl)isoquinolin-3-yl)-6-oxaspiro[2.5]octane-1-carboxamide]
29 | 0.513 nM | CC1(N2CCC(c3cc4cc(NC(=O)[C@@H]5CCCO5)ncc4cc3Cl)CC2)COCC1O (stereo partly shown) [Ex-2.28]
30 | 39.8 nM | C[C@H]1CC(F)(F)CC[C@H]1C(=O)Nc1cc2cc(C3CCN(C4COC4)CC3)c(Cl)cc2cn1 [Ex-1.11, (1R,2S)-N-(7-chloro-6-(1-(oxetan-3-yl)piperidin-4-yl)isoquinolin-3-yl)-4,4-difluoro-2-methylcyclohexane-1-carboxamide]
31 | 19.1 nM | O=C(Nc1cc2cc(C3C4CCOCC43)c(Cl)cc2cn1)C1CC12CCOCC2 (single isomer, unassigned) [Ex-9.23, N-(6-(3-oxabicyclo[4.1.0]heptan-7-yl)-7-chloroisoquinolin-3-yl)-6-oxaspiro[2.5]octane-1-carboxamide]
